According to patent US7670591B2, “Heteroaryl substituted benzoxazoles” (AstraZeneca AB, priority 2006, dated 2010):
Like-named read-outs stand apart in the source and are kept apart here. Values belong to the compound of their own block, whether it stands above or below them.

How the values were obtained:
synthetic Aβ 1-40 = target: T1, synthetic Aβ 1-40 (Homo sapiens, UniProt P05067); experiment: Competition binding assay ([3H]PIB as radioligand)
T1 construct: using synthetic Aβ 1-40 in 2.7 nM of
Experimental: Competition binding was performed in 384-well FB filter plates using synthetic Aβ 1-40 in 2.7 nM of [^3H]PIB (or another ^3H-labeled radioligand when so mentioned) in phosphate buffer at pH 7.5, by adding various concentrations of non-radioactive compounds originally dissolved in DMSO. The binding mixture was incubated for 30 min at room temperature, followed by vacuum filtration, and subsequentially by washing twice with 1% Triton-X100. Scintillation fluid was thereafter added to the collected Aβ 1-40 on the filter plate, and the activity of the bound remaining radioligand ([^3H]PIB or another ^3H-labeled radioligand) was measured using 1450 Microbeta from PerkinElmer (FIG. 1). Specific binding was determined according to the competion binding assay described herein. The determined IC50's in the competion binding assays (using [^3H]PIB as radioligand) of 5 compounds of the present invention are shown in Table 2.

[1] = target: T2, human synthetic Aβ 1-40 fibrils (Homo sapiens, UniProt P05067); experiment: Saturation binding experiments; conditions: amyloid Aβ 1-40 fibrils in vitro, AVG; for Kd: two site binding
T2 construct: human synthetic Aβ 1-40 fibrils
Experimental: Saturation binding experiments were performed in 96-well polypropylene deep well plates. 2 μM human synthetic Aβ 1-40 fibrils in phosphate buffer pH 7.5, or buffer alone as control, were incubated with increasing concentration of a ^3H-labeled radioligand of the present invention for 1 hr at room temperature. The radioactivity still bound to the Aβ 1-40 fibrils at the end of the incubation was detected on FB filters after filtration in a Brandel apparatus using a wash buffer containing 0.1% Triton-X100. Results were corrected for nonspecific, nondisplaceable binding defined as the number of counts from wells without Aβ 1-40 fibrils (replaced with assay buffer).

[2] = cited from earlier work
[3] = [3H]PIB as radioligand, Table 2

T1 sequence (P05067 672-711 limits assumed): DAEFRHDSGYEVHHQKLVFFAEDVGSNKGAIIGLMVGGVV
T2 sequence (P05067 672-711 limits assumed): as above

SMILES: CN(C)c1ccc(-c2nc3ccc(O)cc3o2)cn1 [Example 2, 2-[6-(Dimethylamino)pyridin-3-yl]-1,3-benzoxazol-6-ol]
IC50 (synthetic Aβ 1-40; [3]): 85 nM

SMILES: COc1ccc2nc(-c3ccc(N(C)C(C)=O)nc3)oc2c1 [Example 4, N-[5-(6-Methoxy-1,3-benzoxazol-2-yl)pyridin-2-yl]-N-methylacetamide]
IC50 (synthetic Aβ 1-40; [3]): 15700 nM

SMILES: CNc1ccc(-c2nc3ccc(O)cc3o2)cn1 [Example 5, 2-[6-(Methylamino)pyridin-3-yl]-1,3-benzoxazol-6-ol]
Bmax 1 ([1]; site 1): 0.9099 pmol/nmol Ab
Bmax 2 ([1]; site 2): 4.298 pmol/nmol Ab
Kd ([1]; site 1, read-out: Kd 1): 5.33 nM
Kd ([1]; site 2, read-out: Kd 2): 63.3 nM
IC50 (synthetic Aβ 1-40; [3]): 182 nM
IC50 (synthetic Aβ 1-40; amyloid Aβ 1-40 fibrils in vitro, AVG): 182 nM

SMILES: CN(C)c1ccc(-c2nc3ccc(I)cc3o2)cc1 [IBOX]
brain entrance ([2]; compared with TZDM): relatively higher brain entrance
clearance from normal brain tissue ([2]; compared with related analogues): relatively more rapid clearance from normal brain tissue

More lines, in order of falling IC50 (synthetic Aβ 1-40; [3]), values ahead:

IC50 (synthetic Aβ 1-40; [3]): 204 nM
SMILES: COc1ccc2nc(-c3ccc(N(C)C)nc3)oc2c1 [Example 1, 5-(6-Methoxy-1,3-benzoxazol-2-yl)-N,N-dimethylpyridin-2-amine]

IC50 (synthetic Aβ 1-40; [3]): 186 nM
SMILES: CNc1ccc(-c2nc3ccc(OC)cc3o2)cn1 [Example 3, 5-(6-Methoxy-1,3-benzoxazol-2-yl)-N-methylpyridin-2-amine]
